In the supplement of paper PMC10307832:

Assays:
Experiment in all cases: relative viability (nuclei count vs DMSO), 5 days (fraction); higher = more cells survive
[1] = compound: COc1cccc2c1C(=O)c1c(O)c3c(c(O)c1C2=O)C[C@@](O)(C(=O)CO)C[C@@H]3O[C@H]1C[C@H](N)[C@H](O)[C@H](C)O1 [Doxorubicin] + CC(=O)c1c(C)c2cnc(Nc3ccc(N4CCNCC4)cn3)nc2n(C2CCCC2)c1=O [Palbociclib] (partner 0.5 µM)
Summary of the method: (§1)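 The day after seeding in 1536-well plates, lung cancer cell lines were treated by pin tool with a single drug, or with a fixed anchor-drug dose together with five library-drug doses (not always all listed) in √10 steps. After 5 days, a combined fix-and-stain solution (final 0.05% Triton X-100, 1% formaldehyde, 1 ug/ml Hoechst) was added. Nuclei counted on 4× images gave relative viability as treated counts over vehicle counts, reported as the median of duplicate plates.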

Doxorubicin + Pictilisib = compound: COc1cccc2c1C(=O)c1c(O)c3c(c(O)c1C2=O)C[C@@](O)(C(=O)CO)C[C@@H]3O[C@H]1C[C@H](N)[C@H](O)[C@H](C)O1 [Doxorubicin] + CS(=O)(=O)N1CCN(Cc2cc3nc(-c4cccc5[nH]ncc45)nc(N4CCOCC4)c3s2)CC1 [Pictilisib] (partner 1 µM)
Summary of the method: as §1

BAY61-3606 + Palbociclib = compound: COC1=C(C=C(C=C1)C2=CC3=NC=CN3C(=N2)NC4=C(C=CC=N4)C(=O)N)OC [BAY61-3606] + CC(=O)c1c(C)c2cnc(Nc3ccc(N4CCNCC4)cn3)nc2n(C2CCCC2)c1=O [Palbociclib] (partner 0.5 µM)
Summary of the method: as §1

Doxorubicin + Olaparib = compound: COc1cccc2c1C(=O)c1c(O)c3c(c(O)c1C2=O)C[C@@](O)(C(=O)CO)C[C@@H]3O[C@H]1C[C@H](N)[C@H](O)[C@H](C)O1 [Doxorubicin] + O=C(c1cc(Cc2n[nH]c(=O)c3ccccc23)ccc1F)N1CCN(C(=O)C2CC2)CC1 [Olaparib] (partner 8 µM)
Summary of the method: as §1

Cell Line | relative viability ([1]; first compound 0.001 µM) | relative viability ([1]; first compound 0.003162 µM) | relative viability ([1]; first compound 0.01 µM) | relative viability ([1]; first compound 0.03162 µM) | relative viability ([1]; first compound 0.1 µM) | relative viability (Doxorubicin + Pictilisib; first compound 0.001 µM) | relative viability (Doxorubicin + Pictilisib; first compound 0.003162 µM) | relative viability (Doxorubicin + Pictilisib; first compound 0.01 µM) | relative viability (Doxorubicin + Pictilisib; first compound 0.03162 µM) | relative viability (Doxorubicin + Pictilisib; first compound 0.1 µM) | relative viability (BAY61-3606 + Palbociclib; first compound 0.02 µM) | relative viability (BAY61-3606 + Palbociclib; first compound 0.06325 µM) | relative viability (BAY61-3606 + Palbociclib; first compound 0.2 µM) | relative viability (BAY61-3606 + Palbociclib; first compound 0.6325 µM) | relative viability (BAY61-3606 + Palbociclib; first compound 2 µM) | relative viability (Doxorubicin + Olaparib; first compound 0.001 µM) | relative viability (Doxorubicin + Olaparib; first compound 0.003162 µM) | relative viability (Doxorubicin + Olaparib; first compound 0.01 µM) | relative viability (Doxorubicin + Olaparib; first compound 0.03162 µM) | relative viability (Doxorubicin + Olaparib; first compound 0.1 µM)
HCC-44 | 0.99 | 0.981 | 1 | 1.03 | 0.933 | 0.722 | 0.66 | 0.58 | 0.531 | 0.527 | 0.959 | 0.941 | 0.924 | 0.968 | 1.13 | 0.929 | 1 | 0.997 | 1.01 | 0.993
HCC-78 | 0.46 | 0.526 | 0.449 | 0.488 | 0.453 | 0.208 | 0.216 | 0.219 | 0.196 | 0.0644 | 0.438 | 0.431 | 0.486 | 0.44 | 0.522 | 0.866 | 0.994 | 1.04 | 0.799 | 0.701
HCC-366 | 0.352 | 0.456 | 0.361 | 0.275 | 0.361 | 0.155 | 0.182 | 0.119 | 0.162 | 0.162 | 0.44 | 0.46 | 0.324 | 0.326 | 0.255 | 0.33 | 0.348 | 0.361 | 0.209 | 0.25
HCC-827 | 0.465 | 0.458 | 0.484 | 0.465 | 0.593 | 0.851 | 1.01 | 0.985 | 0.993 | 0.935 | 0.514 | 0.456 | 0.467 | 0.484 | 0.234 | 0.653 | 0.65 | 0.66 | 0.62 | 0.579
HOP-62 | 0.421 | 0.444 | 0.494 | 0.434 | 0.486 | 0.315 | 1.03 | 0.782 | 0.553 | 0.717 | – | 0.465 | 0.459 | 0.348 | 0.346 | 0.396 | 0.56 | 0.365 | 0.42 | 0.296
IA-LM | – | – | – | – | – | 0.287 | 0.341 | 0.254 | 0.0936 | 0.0491 | – | – | – | – | – | 0.796 | 0.889 | 0.954 | 0.754 | 0.673
LC-2-ad | 0.475 | 0.476 | 0.496 | 0.517 | 0.495 | 0.496 | 0.406 | 0.417 | 0.359 | 0.227 | 0.479 | 0.516 | 0.454 | 0.532 | 0.453 | 0.343 | 0.679 | 0.707 | 0.707 | 0.696
LCLC-97TM1 | 0.229 | 0.205 | 0.222 | 0.199 | 0.238 | 0.145 | 0.24 | 0.225 | 0.158 | 0.187 | 0.241 | 0.222 | 0.281 | 0.218 | 0.301 | 0.398 | 0.514 | 0.438 | 0.234 | 0.394
LCLC-103H | 0.468 | 0.508 | 0.5 | 0.457 | 0.41 | 0.618 | 0.677 | 0.569 | 0.588 | 0.578 | 0.473 | 0.508 | 0.449 | 0.462 | 0.481 | 0.726 | 0.82 | 0.726 | 0.799 | 0.769
LK-2 | 0.704 | 0.773 | 0.637 | 0.487 | 0.515 | 0.498 | 0.457 | 0.534 | 0.498 | 0.442 | 0.641 | 0.74 | 0.822 | 0.697 | 0.567 | 0.713 | 0.672 | 0.585 | 0.604 | 0.653
LOU-NH91 | – | 0.459 | 0.564 | 0.526 | 0.416 | – | 0.516 | 0.564 | 0.465 | 0.419 | 0.547 | 0.503 | 0.529 | 0.508 | 0.557 | – | 0.877 | 0.899 | 0.666 | 0.462
LU99A | 0.449 | 0.521 | 0.44 | 0.41 | 0.417 | 0.349 | 0.323 | 0.318 | 0.272 | 0.314 | 0.448 | 0.395 | 0.451 | 0.417 | 0.271 | 0.235 | 0.264 | 0.287 | 0.274 | 0.253
NCI-H522 | 0.986 | 1.19 | 1.08 | 0.89 | 1.04 | – | – | – | – | – | 0.938 | 0.823 | 1.23 | 0.982 | 0.704 | 0.524 | 0.658 | 0.678 | 0.638 | 0.589
NCI-H596 | – | – | – | – | – | 0.353 | 0.436 | 0.41 | 0.44 | 0.379 | – | – | – | – | – | 0.593 | 0.667 | 0.685 | 0.647 | 0.651
NCI-H1299 | – | – | – | – | – | 0.799 | 0.762 | 0.699 | 0.273 | 0.196 | – | – | – | – | – | 0.937 | 0.949 | 0.952 | 0.942 | 0.753
NCI-H1563 | – | – | – | – | – | 0.585 | 0.602 | 0.62 | 0.541 | 0.532 | – | – | – | – | – | – | – | – | – | –
NCI-H1648 | 0.283 | 0.294 | 0.286 | 0.245 | 0.258 | – | – | – | – | – | 0.251 | 0.259 | 0.265 | – | 0.276 | 0.618 | 1.05 | 0.5 | 0.492 | 0.791
NCI-H1703 | – | – | – | – | – | 0.258 | 0.227 | 0.189 | 0.177 | 0.136 | – | – | – | – | – | 0.377 | 0.332 | 0.309 | 0.222 | 0.177
NCI-H2342 | 0.547 | 0.557 | 0.548 | 0.496 | 0.496 | – | – | – | – | – | 0.469 | 0.48 | 0.517 | 0.602 | 0.63 | 0.41 | 0.525 | 0.445 | 0.371 | 0.384
SW 900 | – | 0.604 | 0.543 | 0.452 | 0.519 | – | – | – | – | – | 0.518 | – | – | 0.566 | 0.434 | – | 1.16 | 0.894 | 0.674 | 0.868
